What was measured:
[1] = biological target: ATP-binding cassette sub-family C member 2 (Homo sapiens, UniProt Q92887)
[2] = biological target: T1, Solute carrier organic anion transporter family member 1B3 (Homo sapiens, UniProt Q9NPD5)
T1 sequence (Q9NPD5 whole entry): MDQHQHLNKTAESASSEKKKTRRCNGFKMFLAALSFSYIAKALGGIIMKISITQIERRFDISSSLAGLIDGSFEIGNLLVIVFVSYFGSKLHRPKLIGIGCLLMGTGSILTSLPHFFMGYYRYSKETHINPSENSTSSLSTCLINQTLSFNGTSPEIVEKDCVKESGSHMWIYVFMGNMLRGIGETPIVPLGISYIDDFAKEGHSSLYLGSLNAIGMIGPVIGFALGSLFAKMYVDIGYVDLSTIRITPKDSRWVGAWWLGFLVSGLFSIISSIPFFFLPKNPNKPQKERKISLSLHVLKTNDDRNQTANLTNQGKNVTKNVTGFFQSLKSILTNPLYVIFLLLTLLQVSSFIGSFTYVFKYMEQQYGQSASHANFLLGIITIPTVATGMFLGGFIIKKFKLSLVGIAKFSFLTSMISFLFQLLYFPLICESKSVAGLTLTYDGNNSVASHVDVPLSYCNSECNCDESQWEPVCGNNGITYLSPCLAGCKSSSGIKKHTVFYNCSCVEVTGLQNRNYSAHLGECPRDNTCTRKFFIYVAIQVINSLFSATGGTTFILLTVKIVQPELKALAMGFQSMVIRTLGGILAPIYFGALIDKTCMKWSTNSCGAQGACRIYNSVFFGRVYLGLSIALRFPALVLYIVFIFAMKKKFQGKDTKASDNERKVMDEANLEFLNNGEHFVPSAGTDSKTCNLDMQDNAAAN

Sequence of ATP-binding cassette sub-family C member 2 (Q92887 whole entry): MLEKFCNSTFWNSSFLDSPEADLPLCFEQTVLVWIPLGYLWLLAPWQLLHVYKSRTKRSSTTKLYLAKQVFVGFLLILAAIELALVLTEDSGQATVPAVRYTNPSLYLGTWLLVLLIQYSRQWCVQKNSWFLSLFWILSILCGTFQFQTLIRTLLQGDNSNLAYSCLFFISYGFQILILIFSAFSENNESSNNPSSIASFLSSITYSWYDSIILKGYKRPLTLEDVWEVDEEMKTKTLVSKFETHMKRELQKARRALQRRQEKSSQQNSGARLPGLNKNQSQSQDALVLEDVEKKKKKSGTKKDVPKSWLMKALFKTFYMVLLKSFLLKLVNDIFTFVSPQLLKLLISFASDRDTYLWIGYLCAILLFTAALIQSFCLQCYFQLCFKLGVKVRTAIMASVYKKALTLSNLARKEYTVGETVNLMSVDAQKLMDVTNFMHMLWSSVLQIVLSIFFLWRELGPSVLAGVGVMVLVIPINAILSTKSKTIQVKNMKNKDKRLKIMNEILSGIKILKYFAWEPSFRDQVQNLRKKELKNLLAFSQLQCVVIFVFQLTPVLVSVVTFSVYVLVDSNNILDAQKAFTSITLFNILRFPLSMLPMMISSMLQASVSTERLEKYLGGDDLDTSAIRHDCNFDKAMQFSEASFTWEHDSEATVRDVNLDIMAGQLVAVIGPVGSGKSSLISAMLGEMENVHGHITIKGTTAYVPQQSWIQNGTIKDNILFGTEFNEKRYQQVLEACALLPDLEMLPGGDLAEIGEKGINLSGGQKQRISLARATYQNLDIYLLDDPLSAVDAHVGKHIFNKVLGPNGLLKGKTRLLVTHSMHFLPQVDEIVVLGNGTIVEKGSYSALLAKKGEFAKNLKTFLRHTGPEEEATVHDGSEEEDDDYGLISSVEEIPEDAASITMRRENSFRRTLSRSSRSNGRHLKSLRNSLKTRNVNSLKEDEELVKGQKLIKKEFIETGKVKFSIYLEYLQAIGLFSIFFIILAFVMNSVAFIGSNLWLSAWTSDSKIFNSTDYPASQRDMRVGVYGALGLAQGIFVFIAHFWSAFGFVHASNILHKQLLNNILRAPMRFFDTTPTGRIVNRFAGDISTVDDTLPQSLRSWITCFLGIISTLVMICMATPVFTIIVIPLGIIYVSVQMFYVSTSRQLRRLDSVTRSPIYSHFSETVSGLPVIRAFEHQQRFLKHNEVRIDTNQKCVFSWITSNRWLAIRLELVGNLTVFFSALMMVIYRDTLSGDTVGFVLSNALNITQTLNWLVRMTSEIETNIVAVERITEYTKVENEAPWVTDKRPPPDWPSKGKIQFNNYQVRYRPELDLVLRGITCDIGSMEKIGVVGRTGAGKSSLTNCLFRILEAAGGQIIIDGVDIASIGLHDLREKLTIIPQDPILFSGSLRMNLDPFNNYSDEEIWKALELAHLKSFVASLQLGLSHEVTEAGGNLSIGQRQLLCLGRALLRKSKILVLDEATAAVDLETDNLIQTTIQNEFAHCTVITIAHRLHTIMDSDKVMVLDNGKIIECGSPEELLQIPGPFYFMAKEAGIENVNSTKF

Ki [1]: 8.5 µM
Ki [2]: 0.6 µM
Compound: CN(C)C(=O)CCSC(SCCC(=O)O)c1cccc(C=Cc2ccc3ccc(Cl)cc3n2)c1 (configuration not stated) [NSC_60719]

Reference: BindingDB's records for doi:10.1124/jpet.104.081224 (German Cancer Research Center, 2005)
